Measured values reported in patent US12502393B2, “Dual mode of action soluble guanylate cyclase activators and phosphodiesterase inhibitors and uses thereof” (TOPADUR PHARMA AG, priority 2018, dated 2025).
Where two headings read alike, the source gives them in different places. Blank lines part the entries; values can stand above or below the molecule they belong to.

Experiments:
Human Platelets = assay: Total cGMP in human platelets; assay type: cell-based; conditions: for Ratio Maximum cGMP increase vs Baseline: 1 μM riociguat and 100 nM BAY 190954, incubation 2 h; for Concentration (nM) for 3-fold cGMP or 2-fold* increase vs Baseline: 1 μM riociguat, 100 nM BAY 190954
Procedure: Effects of test and reference compounds on total cGMP in human platelets were investigated as described by Dunkern and Hatzelmann (Cell Signal. 17: 331-9, 2005) with modifications. Briefly, buffy coats (acquired form SRK Blutspende Zurich) were 4-fold diluted in 150 mM sodium chloride solution containing 0.9% sodium citrate and centrifuged at 200 g for 10 min. The resulting platelet-rich plasma was supplemented with a 1/10 volume of ACD solution (85 mM sodium citrate, 111 mM D-glucose, 71 mM citric acid, pH 4.4) and apyrase (Sigma AG) to a final concentration of 2 U/ml. After another centrifugation (1400 g, 10 min) the cellular pellet was resuspended in Ca2+/Mg2+-free Hepes-Tyrode buffer (134 mM NaCl, 12 mM NaHCO3, 2.9 mM KCl, 0.36 mM NaH2PO4, 5 mM HEPES, 5 mM glucose, 0.5% (w/v) bovine serum albumin, pH 7.4) and platelets were counted.
Platelets were used at 9×10^7 cells in 100 μl per well and after adding test and reference compounds the incubation volume was 200 μl per well in Hepes-Tyrode. Experiments in platelets were done in presence of 1 μM riociguat and 100 nM BAY 190954 (PDE2 inhibitor) (Lucerna Chem AG) and test/reference compounds were added after a preincubation time of 15 min. At the end of the incubation time (see below) the reaction was terminated by adding 20 μl of 2N HCl per well. Following a 20 sec on a plate shaker (300 rpm) the plate was left for 15 min and then centrifuged at 1000×g for 5 min. Supernatants were stored at −80° C.
(§1) cGMP was determined by a commercially available ELISA kit (Direct cGMP ELISA kit, Enzo Life Sciences AG, Lauren, Switzerland) with a lower detection limit of 0.08 pmol/ml using the acetylation protocol following manufacturer's instructions. Results are given as the means from at least two independent experiments each in triplicate.
(§2) To study concentration-dependent effects on total cGMP test and reference compounds were investigated from 0.1 nM to 1 μM in half-logarithmic steps with an incubation time of 2 h. To examine the time course the incubation times were (min) 10, 30, 60, 90, 120 at 1 μM of test or reference compound.
(§3) Compounds were diluted from stock solutions in DMSO. The final concentration of DMSO in all wells including the vehicle controls was 0.2% for human trabecular meshwork and rat aortic smooth muscle cells and 0.3% for platelets.
(§4) From time course experiments, the time to half of the maximum cGMP increase with 1 μM of test compound has been extrapolated (t0.5max).

[1] = molecular target: T1, recombinant human (rh) PDE5A (Homo sapiens, UniProt O76074); assay: Phosphodiesterase-5 activity assay (radiometric SPA); assay type: biochemical; conditions: rhPDE5A1, 0.5 μM cGMP, 20 min at 37° C.
T1 construct: GST; purchased SIGMA E9034

[2] = Human plasma protein binding; assay type: in vitro ADME; conditions: for fraction unbound: human
Procedure: An aliquot of 200 μL of human plasma containing test compound was spiked into donor well (red chamber) of the insert. 350 μL of PBS was spiked into receiver well (white chamber) of the insert.
The samples were matrix equilibrated with opposite matrix (25 μL of plasma/buffer sample was matched with 25 μL of blank buffer/plasma). Matrix matched samples were precipitated with 200 μL of acetonitrile containing internal standard. Samples were vortexed at 1000 rpm for 5 min and centrifuged at 4000 rpm for 10 min. Supernatant was separated, diluted 2 fold with water and analysed in LC-MS/MS. (Table 2).

[3] = test system: Rat aortic smooth muscle cells; assay: Cellular cGMP assay in rat aortic smooth muscle cells; assay type: cell-based; conditions: 10 μM Riociguat
Procedure: Examples (Test compounds) were characterized for their potency and efficacy to elevate cGMP in cellular systems such as human trabecular meshwork cells (Table 3), human platelets (Table 5) and rat aortic smooth muscle cells (Table 4).
Human trabecular meshwork cells (ABC Biopply AG, Solothurn, Switzerland) or rat aortic smooth muscle cells (Sigma Aldrich AG, Buchs, Switzerland) were plated in a 96 well plate precoated with collagen (Collagen Type I solution from rat tail, Sigma; diluted to 0.1 mg/ml) at 20.000 cells per well and grown in corresponding Trabecular Meshwork (ABC Supply AG) or Smooth Muscle (Sigma AG) Growth medium as provided by the manufacturers. After 18 h medium was exchanged and new medium added supplemented with 5 mM GSH. The next day culture medium was exchanged to DMEM with low glucose supplemented with 5 mM GSH. Cells were pre-incubated with 10 μM Riociguat (soluble guanylate cyclase stimulator; Lucerna-Chem AG, Luzern, Switzerland) for 15 min before test or reference compounds or vehicle was added to a final incubation volume of 100 μl per well. At the end of the incubation time (see below) the reaction was terminated by adding HCl (0.16M), IBMX (Isobutylmethylxanthin) (2 mM) in DMSO (2%) to the culture medium, final concentrations per well are given in brackets. Following a 20 sec on a plate shaker (200 rpm) the plate was immediately frozen at −80° C.
as §1, §2, §3, §4

[4] = test system: Human Trabecular Meshwork Cells; assay: Cellular cGMP assay in human trabecular meshwork cells; assay type: cell-based; conditions: HTMC, 10 μM Riociguat; for Ratio Maximum cGMP increase vs Baseline: 5 mM GSH, incubation 2 h
[5] = read-out: % Unbound in human plasma
[6] = read-out: % Bound in human plasma (converted)
[7] = 3-fold increase (values without asterisk)
[8] = 2-fold increase (values marked *)

Structure (SMILES): CCCc1nc(C)c2c(=O)[nH]c(-c3cc(S(=O)(=O)N4CCC(CC(CO[N+](=O)[O-])CO[N+](=O)[O-])CC4)ccc3OCC)nn12 [Compound 2m, 2-((1-((4-ethoxy-3-(5-methyl-4-oxo-7-propyl-3,4-dihydroimidazo[5,1-f][1,2,4]triazin-2-yl)phenyl)sulfonyl)piperidin-4-yl)methyl)propane-1,3-diyl dinitrate]
- Ratio Maximum cGMP increase vs Baseline (Human Platelets): 262.3
- IC50 [1]: 0.44 nM
- % Bound in human plasma [2]: 99.92%
- fraction unbound [2, 5]: 0.0008

- IC50 [1]: 0.16 nM
- fraction unbound [2, 6]: 0.0173
- fraction unbound [2, 5]: 0.0173
Structure (SMILES): CCCc1nc(C)c2c(=O)[nH]c(-c3cc(S(=O)(=O)N4CCC([C@H](O)CO[N+](=O)[O-])CC4)ccc3OCC)nn12 [Compound 2d, (S)-2-(1-((4-ethoxy-3-(5-methyl-4-oxo-7-propyl-3,4-dihydroimidazo[5,1-f][1,2,4]triazin-2-yl)phenyl)sulfonyl)piperidin-4-yl)-2-hydroxyethyl nitrate]

Structure (SMILES): CCCc1nn(C)c2c(=O)[nH]c(-c3cc(S(=O)(=O)N4CCC([C@H](CO[N+](=O)[O-])O[N+](=O)[O-])CC4)ccc3OCC)nc12 [Compound 1a, (R)-1-(1-((4-ethoxy-3-(1-methyl-7-oxo-3-propyl-6,7-dihydro-1H-pyrazolo[4,3-d]pyrimidin-5-yl)phenyl)sulfonyl)piperidin-4-yl)ethane-1,2-diyl dinitrate]
- Ratio Maximum cGMP increase vs Baseline (Human Platelets): 67.4
- Concentration (nM) for 3-fold cGMP or 2-fold* increase vs Baseline (Human Platelets; [7]): 57 nM
- Concentration (nM) for 3-fold cGMP increase vs Baseline [3]: 222 nM
- Ratio Maximum cGMP increase vs Baseline ([3]; 5 mM GSH, incubation 2 h): 4.44
- IC50 [1]: 5 nM
- Concentration (nM) for 3-fold or 2-fold* cGMP increase vs Baseline [4, 7]: 26.7 nM
- Ratio Maximum cGMP increase vs Baseline [4]: 55.7

- IC50 [1]: 0.022 nM
Structure (SMILES): CCCc1nc(C)c2c(=O)[nH]c(-c3cc(S(=O)(=O)N4CCC(CC(C)(CO)CO)CC4)ccc3OCC)nn12 [Compound 47, 2-(2-ethoxy-5-((4-(3-hydroxy-2-(hydroxymethyl)-2-methylpropyl)piperidin-1-yl)sulfonyl)phenyl)-5-methyl-7-propylimidazo[5,1-f][1,2,4]triazin-4(3H)-one]
- Ratio Maximum cGMP increase vs Baseline (Human Platelets): 39.0

Structure (SMILES): CCCc1nc(C)c2c(=O)[nH]c(-c3cc(S(=O)(=O)N4CCC(C(O)(CCO)CCO[N+](=O)[O-])CC4)ccc3OCC)nn12 (stereo not shown) [Compound 2g, 3-(1-((4-ethoxy-3-(5-methyl-4-oxo-7-propyl-3,4-dihydroimidazo[5,1-f][1,2,4]triazin-2-yl)phenyl)sulfonyl)piperidin-4-yl)-3,5-dihydroxypentyl nitrate]
- Ratio Maximum cGMP increase vs Baseline (Human Platelets): 183.5
- IC50 [1]: 0.37 nM
- % Bound in human plasma [2]: 98.29%
- fraction unbound [2, 5]: 0.0171
- Concentration (nM) for 3-fold or 2-fold* cGMP increase vs Baseline [4, 8]: 22.2* nM
- Ratio Maximum cGMP increase vs Baseline [4]: 109.1

- IC50 [1]: 0.19 nM
- fraction unbound [2, 6]: 0.069
- fraction unbound [2, 5]: 0.069
Structure (SMILES): CCCc1nc(C)c2c(=O)[nH]c(-c3cc(S(=O)(=O)N4CCC(C(O)(CCO)CCO)CC4)ccc3OCC)nn12 [Compound 28, 2-(2-ethoxy-5-((4-(1,3,5-trihydroxypentan-3-yl)piperidin-1-yl)sulfonyl)phenyl)-5-methyl-7-propylimidazo[5,1-f][1,2,4]triazin-4(3H)-one]

Structure (SMILES): CCCc1nc(C)c2c(=O)[nH]c(-c3cc(S(=O)(=O)N4CCC(CC(C)(CO)CO[N+](=O)[O-])CC4)ccc3OCC)nn12 (stereo not shown) [Compound 2p, 3-(1-((4-ethoxy-3-(5-methyl-4-oxo-7-propyl-3,4-dihydroimidazo[5,1-f][1,2,4]triazin-2-yl)phenyl)sulfonyl)piperidin-4-yl)-2-(hydroxymethyl)-2-methylpropyl nitrate]
- Ratio Maximum cGMP increase vs Baseline (Human Platelets): 204.1
- Concentration (nM) for 3-fold cGMP or 2-fold* increase vs Baseline (Human Platelets; [8]): 102* nM
- IC50 [1]: 0.11 nM
- % Bound in human plasma [2]: 99.66%
- fraction unbound [2, 5]: 0.0034
- Concentration (nM) for 3-fold or 2-fold* cGMP increase vs Baseline [4, 8]: 1.4* nM
- Ratio Maximum cGMP increase vs Baseline [4]: 46.1

Structure (SMILES): CCCc1nc(C)c2c(=O)[nH]c(-c3cc(S(=O)(=O)N4CCC(C(O)(CCO[N+](=O)[O-])CCO[N+](=O)[O-])CC4)ccc3OCC)nn12 [Compound 2h, 3-(1-((4-ethoxy-3-(5-methyl-4-oxo-7-propyl-3,4-dihydroimidazo[5,1-f][1,2,4]triazin-2-yl)phenyl)sulfonyl)piperidin-4-yl)-3-hydroxypentane-1,5-diyl dinitrate]
- Ratio Maximum cGMP increase vs Baseline (Human Platelets): 171.3
- IC50 [1]: 1 nM
- % Bound in human plasma [2]: 99.77%
- fraction unbound [2, 5]: 0.0023

Structure (SMILES): CCCc1nc(C)c2c(=O)[nH]c(-c3cc(S(=O)(=O)N4CCC(C(O)C(CO[N+](=O)[O-])CO[N+](=O)[O-])CC4)ccc3OCC)nn12 (stereo not shown) [Compound 2i, 2-((1-((4-ethoxy-3-(5-methyl-4-oxo-7-propyl-3,4-dihydroimidazo[5,1-f][1,2,4]triazin-2-yl)phenyl)sulfonyl)piperidin-4-yl)(hydroxy)methyl)propane-1,3-diyl dinitrate]
- Ratio Maximum cGMP increase vs Baseline (Human Platelets): 932.9
- IC50 [1]: 1.5 nM
- % Bound in human plasma [2]: 99.99%
- fraction unbound [2, 5]: 0.0001

- IC50 [1]: 0.13 nM
- fraction unbound [2, 6]: 0.022
- fraction unbound [2, 5]: 0.022
Structure (SMILES): CCCc1nc(C)c2c(=O)[nH]c(-c3cc(S(=O)(=O)N4CCC(CC(CO)CO)CC4)ccc3OCC)nn12 [Compound 43, 2-(2-ethoxy-5-(4-(3-hydroxy-2-(hydroxymethyl)propyl)piperidin-1-ylsulfonyl)phenyl)-5-methyl-7-propylimidazo[1,5-f][1,2,4]triazin-4(3H)-one]
- Ratio Maximum cGMP increase vs Baseline (Human Platelets): 28.5

Structure (SMILES): CCCc1nc(C)c2c(=O)[nH]c(-c3cc(S(=O)(=O)N4CCC(CC(C)(CO[N+](=O)[O-])CO[N+](=O)[O-])CC4)ccc3OCC)nn12 [Compound 2o, 2-((1-((4-ethoxy-3-(5-methyl-4-oxo-7-propyl-3,4-dihydroimidazo[5,1-f][1,2,4]triazin-2-yl)phenyl)sulfonyl)piperidin-4-yl)methyl)-2-methylpropane-1,3-diyl dinitrate]
- Ratio Maximum cGMP increase vs Baseline (Human Platelets): 202.8
- Concentration (nM) for 3-fold cGMP or 2-fold* increase vs Baseline (Human Platelets; [8]): 120* nM
- IC50 [1]: 0.52 nM
- % Bound in human plasma [2]: 99.95%
- fraction unbound [2, 5]: 0.0005
- Concentration (nM) for 3-fold or 2-fold* cGMP increase vs Baseline [4, 8]: 1.9* nM
- Ratio Maximum cGMP increase vs Baseline [4]: 86.9

Structure (SMILES): CCCc1nc(C)c2c(=O)[nH]c(-c3cc(S(=O)(=O)N4CCC(CC(CO)CO[N+](=O)[O-])CC4)ccc3OCC)nn12 (stereo not shown) [Compound 2n, 3-(1-((4-ethoxy-3-(5-methyl-4-oxo-7-propyl-3,4-dihydroimidazo[5,1-f][1,2,4]triazin-2-yl)phenyl)sulfonyl)piperidin-4-yl)-2-(hydroxymethyl)propyl nitrate]
- Ratio Maximum cGMP increase vs Baseline (Human Platelets): 161.0
- IC50 [1]: 0.47 nM
- % Bound in human plasma [2]: 99.48%
- fraction unbound [2, 5]: 0.0052
